Assay results: patent US4396550A, “Dibenz [b,e] oxepin derivatives” (Kyowa Hakko Kogyo Co., Ltd., priority 1980, dated 1983)

Experiments:
Antiasthmatic activity = type: in vivo; settings: po; for minimal effective dose: read-out: Antiasthmatic activity: MED
[1] = system: blood platelets (platelet-rich plasma); assay: Test for the inhibition of platelet aggregation (collagen-induced, platelet-rich plasma); type: cell-based, male white rabbits; settings: depressing ratio of 50% of collagen-induced aggregation, compound 3 minutes before; for minimal effective concentration: Oryctolagus cuniculus, Platelet, 0.05 h, read-out: Antiplatelet aggregation activity: MED
Experimental: In this test, 9 vols. of blood are sampled from the caroted artery of male white rabbits weighing 2 to 2.5 kg and placed in a silicon-coated flask containing 1 vol. of 3.8% sodium citrate. The thus obtained blood is centrifuged at 1,000 rpm for 15 minutes to obtain platelet-rich plasma. The aggregation of the blood platelets is observed using an aggregometer, when collagen is added to the platelet-rich plasma to the extent of the final concentration that 50% of platelet aggregation is caused in the presence of 100 γ/ml of aspirin. On the other hand, 3 minutes after administration of the test compounds to the platelet-rich plasma, the same procedure as mentioned above is carried out to observe the aggregation of blood platelet. The test compounds showing a depressing ratio of 50%, compared with the inhibition of aggregation by collagen alone, are concluded to have antiplatelet aggregation activity.

[2] = system: isolated ileum of guinea-pig; assay: Test for antihistaminergic effects on the isolated ileum of guinea-pig (histamine contraction, in vitro); set-up: species or system guinea-pig (male Hartly-strain); settings: depressing ratio of 80% or more of histamine contraction; for minimal effective concentration: Cavia porcellus, 0.05 h, read-out: Antihistaminergic activity: MED
Experimental: (§1) Male Hartly-strain guinea-pigs weighing about 250 g are killed and the abdomen is opened. The part (2-3 cm in length) of the ileum 10 cm away from the caecum to the pylorus is cut off as a preparation. The preparation is suspended with serre-fine in a Magnus bath containing 10 ml of Tyrode's solution at 32±1° C. under an air bubble. The contraction of the ileum is recorded on Kymograph through hebel when 0.1 ml of acetylcholine at a concentration of 10^-3 g/ml is added to the Tyrode's solution.
(§2) On the other hand, 3 minutes after administration of the test compounds, the same procedure as mentioned above is carried out to record the contraction.
In this test, 0.1 ml of histamine at a concentration of 5×10^-3 g/l is used.

[3] = system: isolated ileum of guinea-pig; assay: Test for anticholinergic effects on the isolated ileum of guinea-pig (acetylcholine contraction, in vitro); set-up: species or system guinea-pig (male Hartly-strain); settings: depressing ratio of 80% or more of acetylcholine contraction, compound 3 minutes before; for minimal effective concentration: Cavia porcellus, 0.05 h, read-out: Anticholinergic activity: MED (minimum effective dose)
Experimental: as §1, §2

male dd-strain rats = assay: Acute toxicity test (minimum lethal dose); type: in vivo; settings: mortality for 7 days
Experimental: Groups of male dd-strain rats (each group consisting of five rats) weighing 20±1 g were used. The compounds of the present invention were administered orally (po: 0.3 mg/g) or intraperitoneally (ip: 0.1 mg/g). The MLD (minimum lethal dose) was calculated from the mortality for 7 days after the administration to obtain the results given in Table 1.

| Compound | Antiasthmatic activity: MED (Antiasthmatic activity) [mg/kg] | Antiplatelet aggregation activity: MED [1] [µg/mL] | Antihistaminergic activity: MED [2] [µg/mL] | Anticholinergic activity: MED (minimum effective dose) [3] [µg/mL] | Acute toxicity: MLD (minimum lethal dose) (male dd-strain rats; ip) [mg/kg] | Acute toxicity: MLD (minimum lethal dose) (male dd-strain rats; po) [mg/kg] | minimal effective dose (Antiasthmatic activity) [mg/kg] | minimal effective concentration [1] [µg/mL] | minimal effective concentration [2] [µg/mL] | minimal effective concentration [3] [µg/mL] |
| --- | --- | --- | --- | --- | --- | --- | --- | --- | --- | --- |
| 4-methyl-11-(3-quinuclidinyl)amino-6,11-dihydrodibenz[b,e]oxepin [Compound 56] | 100 | 20 | 1 | 1 | 100 | 200 |  |  |  |  |
| CCN(CC)CCNC1c2ccccc2COc2ccc(C)cc21 (centres unmarked) [Compound 8, 2-methyl-11-{2-(diethylamino)ethyl}amino-6,11-dihydrodibenz[b,e]oxepin] |  |  |  |  | > 100 | 200 | 25 | 20 | 1 | 10 |
| OCCN1CCN(C2c3ccccc3COc3ccc(Cl)cc32)CC1 (centres unmarked) [Compound 40, 2-chloro-11-{4-(2-hydroxyethyl)-1-piperazinyl}-6,11-dihydrodibenz[b,e]oxepin] |  |  |  |  | > 100 | > 300 | 50 | 100 | 3 |  |
| OCCN1CCN(C2c3ccccc3COc3ccc(F)cc32)CC1 (centres unmarked) [Compound 39, 2-fluoro-11-{4-(2-hydroxyethyl)-1-piperazinyl}-6,11-dihydrodibenz[b,e]oxepin] |  |  |  |  | 100 | > 300 | 100 | 50 | 10 | 1 |
| COc1ccc2c(c1)C(N1CCN(C)CC1)c1ccccc1CO2 (centres unmarked) [Compound 68, 2-methoxy-11-(4-methyl-1-piperazinyl)-6,11-dihydrodibenz[b,e]oxepin] |  |  |  |  | 100 | 200 | 100 | 100 | 3 | 10 |
| CCc1ccc2c(c1)C(N1CCN(CCO)CC1)c1ccccc1CO2 (centres unmarked) [Compound 38, 2-ethyl-11-{4-(2-hydroxyethyl)-1-piperazinyl}-6,11-dihydrodibenz[b,e]oxepin] |  |  |  |  | > 100 | > 300 | 100 | 100 | 1 | 1 |
| Cc1ccc2c(c1)C(NCCN1CCOCC1)c1ccccc1CO2 (centres unmarked) [Compound 59, 2-methyl-11-(2-morpholinoethyl)amino-6,11-dihydrodibenz[b,e]oxepin] |  |  |  |  | > 100 | 200 | 100 | 100 | 10 |  |
| Cc1ccc2c(c1)C(NCCCN(C)C)c1ccccc1CO2 (centres unmarked) [Compound 14, 2-methyl-11-{3-(dimethylamino)propyl}amino-6,11-dihydrodibenz[b,e]oxepin] |  |  |  |  | > 100 | > 300 | 100 | 20 | 10 | 10 |
| CCc1ccc2c(c1)C(NC1CN3CCC1CC3)c1ccccc1CO2 (centres unmarked) [Compound 21, 2-ethyl-11-(3-quinuclidinyl)amino-6,11-dihydrodibenz[b,e]oxepin] |  |  |  |  | 100 | 300 | 25 | 50 | 0.1 | 0.1 |
| Cc1ccc2c(c1)C(NCCN1CCCC1)c1ccccc1CO2 (centres unmarked) [Compound 58, 2-methyl-11-{2-(1-pyrrolidinyl)ethyl}amino-6,11-dihydrodibenz[b,e]oxepin] |  |  |  |  | > 100 | 300 | 25 | 50 | 0.1 | 3 |
| CCC(C)(C)c1ccc2c(c1)C(NC1CN3CCC1CC3)c1ccccc1CO2 (centres unmarked) [Compound 53, 2-(1,1-dimethyl)propyl-11-(3-quinuclidinyl)amino-6,11-dihydrodibenz[b,e]oxepin] |  |  |  |  | 50 | > 300 | 50 |  | 1 | 10 |
| CN(C)CCNC1c2ccccc2COc2ccc(Cl)cc21 (centres unmarked) [Compound 19, 2-chloro-11-{2-(dimethylamino)ethyl}amino-6,11-dihydrodibenz[b,e]oxepin] |  |  |  |  | > 100 | > 300 | 25 | 50 | 1 | 3 |
| CCN(CC)CCNC1c2ccccc2COc2ccc(OC)cc21 (centres unmarked) [Compound 13, 2-methoxy-11-{2-(diethylamino)ethyl}amino-6,11-dihydrodibenz[b,e]oxepin] |  |  |  |  | > 100 | > 300 | 100 | 20 | 0.3 | 1 |
| Cc1ccc2c(c1)C(N1CCN(C)CC1)c1ccccc1CO2 (centres unmarked) [Compound 67, 2-methyl-11-(4-methyl-1-piperazinyl)-6,11-dihydrodibenz[b,e]oxepin] |  |  |  |  | > 100 | > 300 | 25 | 50 | 0.3 | 10 |
| CN(C)CCCNC1c2ccccc2COc2ccc(F)cc21 (centres unmarked) [Compound 49, 2-fluoro-11-{3-(dimethylamino)propyl}amino-6,11-dihydrodibenz[b,e]oxepin] |  |  |  |  | > 100 | > 300 |  | 50 | 1 | 3 |
| Cc1ccc2c(c1)C(N1CCN(CCO)CC1)c1ccccc1CO2 (centres unmarked) [Compound 37, 2-methyl-11-{4-(2-hydroxyethyl)-1-piperazinyl}-6,11-dihydrodibenz[b,e]oxepin] |  |  |  |  | > 100 | > 300 |  | 50 | 10 | 10 |
| CCN(CC)CCNC1c2ccccc2COc2ccc(Cl)cc21 (centres unmarked) [Compound 10, 2-chloro-11-{2-(diethylamino)ethyl}amino-6,11-dihydrodibenz[b,e]oxepin] |  |  |  |  | > 100 | > 300 | 100 | 2 |  |  |
| CCc1ccc2c(c1)C(NCCN1CCNCC1)c1ccccc1CO2 (centres unmarked) [Compound 26, 2-ethyl-11-{2-(1-piperazinyl)ethyl}amino-6,11-dihydrodibenz[b,e]oxepin] |  |  |  |  | > 100 | > 300 |  | 5 | 3 | 3 |
| CCN(CC)CCNC1c2ccccc2COc2ccc(C3CCCCC3)cc21 (centres unmarked) [Compound 48, 2-cyclohexyl-11-{2-(diethylamino)ethyl}amino-6,11-dihydrodibenz[b,e]oxepin] |  |  |  |  | 100 | > 300 |  | 100 | 3 | 3 |
| CCc1ccc2c(c1)C(NCCCN(CC)CC)c1ccccc1CO2 (centres unmarked) [Compound 2, 2-ethyl-11-{3-(diethylamino)propyl}amino-6,11-dihydrodibenz[b,e]oxepin] |  |  |  |  | 100 | 300 |  | 1 | 1 | 10 |
